According to patent publication US10457685B2, “[1,2,3]triazolo[4,5-D]pyrimidine derivatives with affinity for the type-2 cannabinoid receptor” (Hoffmann-La Roche Inc., priority 2016, dated 2019):

Columns and labels:
[1] = biological target: human CB2 receptor (CNR2) (Homo sapiens (Human), UniProt P34972); test: Radioligand binding assay ([3H]-CP-55,940), membranes of HEK cells expressing human CNR2; settings: 2.6 nM [3H]-CP-55,940, HEK cell membranes, 1 h at 30° C.
Method: (§1) Radioligand Binding Assay
(§2) The affinity of the compounds of the invention for cannabinoid receptors was determined using recommended amounts of membrane preparations (PerkinElmer) of human embryonic kidney (HEK) cells expressing the human CNR1 or CNR2 receptors in conjunction with 1.5 or 2.6 nM [3H]-CP-55,940 (Perkin Elmer) as radioligand, respectively. Binding was performed in binding buffer (50 mM Tris, 5 mM MgCl2, 2.5 mM EDTA, and 0.5% (wt/vol) fatty acid free BSA, pH 7.4 for CB1 receptor and 50 mM Tris, 5 mM MgCl2, 2.5 mM EGTA, and 0.1% (wt/vol) fatty acid free BSA, pH 7.4 for CB2 receptor) in a total volume of 0.2 mL for 1 h at 30° C. shaking. The reaction was terminated by rapid filtration through microfiltration plates coated with 0.5% polyethylenimine (UniFilter GF/B filter plate; Packard). Bound radioactivity was analyzed for Ki using nonlinear regression analysis (Activity Base, ID Business Solution, Limited), with the Kd values for [^3H]CP55,940 determined from saturation experiments.

[2] = biological target: human CB1 receptor (CNR1) (Homo sapiens (Human), UniProt P21554); test: Radioligand binding assay ([3H]-CP-55,940), membranes of HEK cells expressing human CNR1; settings: 1.5 nM [3H]-CP-55,940, HEK cell membranes, 1 h at 30° C.
Method: as §1, §2

human CB1 receptor (CNR1), sequence (P21554 whole entry): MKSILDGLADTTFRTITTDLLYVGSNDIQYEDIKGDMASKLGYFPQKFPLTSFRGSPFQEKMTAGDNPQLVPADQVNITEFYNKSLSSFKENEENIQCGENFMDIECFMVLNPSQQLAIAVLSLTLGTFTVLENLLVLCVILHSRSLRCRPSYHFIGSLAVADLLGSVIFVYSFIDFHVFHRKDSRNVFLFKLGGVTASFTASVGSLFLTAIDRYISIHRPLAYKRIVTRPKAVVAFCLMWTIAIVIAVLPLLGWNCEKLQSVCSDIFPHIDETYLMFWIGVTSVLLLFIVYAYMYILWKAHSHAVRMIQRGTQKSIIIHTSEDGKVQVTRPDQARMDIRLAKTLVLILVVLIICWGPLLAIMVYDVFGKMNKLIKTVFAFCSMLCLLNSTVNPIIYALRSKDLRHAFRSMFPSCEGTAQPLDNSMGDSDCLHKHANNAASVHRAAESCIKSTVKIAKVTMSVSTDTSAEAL
human CB2 receptor (CNR2), sequence (P34972 whole entry): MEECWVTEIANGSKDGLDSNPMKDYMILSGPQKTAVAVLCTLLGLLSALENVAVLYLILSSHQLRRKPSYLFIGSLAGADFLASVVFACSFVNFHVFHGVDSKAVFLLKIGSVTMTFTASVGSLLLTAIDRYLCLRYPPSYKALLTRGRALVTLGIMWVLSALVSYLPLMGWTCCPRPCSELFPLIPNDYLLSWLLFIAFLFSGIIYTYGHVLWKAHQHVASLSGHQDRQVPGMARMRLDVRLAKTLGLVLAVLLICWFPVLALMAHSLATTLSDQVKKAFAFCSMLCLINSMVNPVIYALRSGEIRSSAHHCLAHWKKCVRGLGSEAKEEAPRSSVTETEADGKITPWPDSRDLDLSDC

5-tert-butyl-7-(3,3-Difluoropyrrolidin-1-yl)-3-[[2-(pyridin-2-yldisulfanyl)phenyl]methyl]triazolo[4,5-d]pyrimidine [Example 37]
Ki [1]: 0.541 µM
Ki [2]: 2.58 µM

Cc1nonc1Cn1nnc2c(N3CC[C@H](S)C3)nc(C(C)(C)C)nc21 (single isomer, unassigned) [Example 10]
Ki [1]: 0.153 µM
Ki [2]: > 10 µM

CC(C)(C)c1nc(N2CC[C@H](S)C2)c2nnn(Cc3ccccc3Cl)c2n1 (single isomer, unassigned) [Example 12]
Ki [1]: 2.5 µM
Ki [2]: 2.81 µM

CC(C)(C)c1nc(N2CC[C@@H](S)C2)c2nnn(Cc3ccccc3Cl)c2n1 (single isomer, unassigned) [Example 13]
Ki [1]: 1.56 µM
Ki [2]: > 10 µM

CC(C)(C)c1nc(N2CC[C@H](O)C2)c2nnn(Cc3ccccc3S(=O)(=O)F)c2n1 [Example 1, 2-[[5-tert-Butyl-7-[(3S)-3-hydroxypyrrolidin-1-yl]triazolo[4,5-d]pyrimidin-3-yl]methyl]benzenesulfonyl fluoride]
Ki [1]: 0.016 µM
Ki [2]: > 10 µM

CC(C)(C)c1nc(N2CCC(F)(F)C2)c2nnn(Cc3ccccc3CS(=O)(=O)F)c2n1 [Example 2, (2-{[5-tert-Butyl-7-(3,3-difluoropyrrolidin-1-yl)-3H-[1,2,3]triazolo[4,5-d]pyrimidin-3-yl]methyl}phenyl)methanesulfonyl fluoride]
Ki [1]: 0.011 µM
Ki [2]: 1.96 µM

CC(C)(C)c1nc(N2CC[C@H](O)C2)c2nnn(Cc3ccccc3CS(=O)(=O)F)c2n1 [Example 3, [2-({5-tert-Butyl-7-[(3S)-3-hydroxypyrrolidin-1-yl]-3H-[1,2,3]1 triazolo[4,5-d]pyrimidin-3-yl}methyl)phenyl]methanesulfonyl fluoride]
Ki [1]: 0.283 µM
Ki [2]: > 10 µM

CC(C)(C)c1nc(N2CCC(F)(F)C2)c2nnn(Cc3ccccc3CN=C=S)c2n1 [Example 4, 5-tert-Butyl-7-(3,3-difluoropyrrolidin-1-yl)-3-{[2-(isothiocyanatomethyl)phenyl]methyl}-3H-[1,2,3]triazolo[4,5-d]pyrimidine]
Ki [1]: 0.088 µM
Ki [2]: 3.83 µM

CC(C)(C)c1nc(N2CC[C@H](O)C2)c2nnn(Cc3ccccc3CN=C=S)c2n1 [Example 5, (3S)-1-(5-tert-Butyl-3-{[2-(isothiocyanatomethyl)phenyl]methyl}-3H-[1,2,3]triazolo[4,5-d]pyrimidin-7-yl)pyrrolidin-3-ol]
Ki [1]: 0.091 µM
Ki [2]: > 10 µM

CC(C)(C)c1nc(N2CCC(F)(F)C2)c2nnn(Cc3ccccc3N=C=S)c2n1 [Example 6, 5-tert-Butyl-7-(3,3-difluoropyrrolidin-1-yl)-3-[(2-isothiocyanatophenyl)methyl]-3H-[1,2,3]triazolo[4,5-d]pyrimidine]
Ki [1]: 0.3 µM
Ki [2]: 5.36 µM

CC(C)(C)c1nc(N2CCC(F)(F)C2)c2nnn(Cc3ccccc3S(=O)(=O)F)c2n1 [Example 7, 2-{[5-tert-Butyl-7-(3,3-difluoropyrrolidin-1-yl)-3H-[1,2,3]triazolo[4,5-d]pyrimidin-3-yl]methyl}benzene-1-sulfonyl fluoride]
Ki [1]: 0.006 µM
Ki [2]: 0.931 µM

CC(C)(C)c1nc(N2CCC(S)C2)c2nnn(Cc3ccccc3Cl)c2n1 (stereo not shown) [Example 8, 1-{5-tert-Butyl-3-[(2-chlorophenyl)methyl]-3H-[1,2,3]triazolo[4,5-d]pyrimidin-7-yl}pyrrolidine-3-thiol]
Ki [1]: 0.085 µM
Ki [2]: 1.47 µM

CC(C)(C)c1nc(N2CC(S)C2)c2nnn(Cc3ccccc3Cl)c2n1 [Example 9, 1-{5-tert-Butyl-3-[(2-chlorophenyl)methyl]-3H-[1,2,3]triazolo[4,5-d]pyrimidin-7-yl}azetidine-3-thiol]
Ki [1]: 0.383 µM
Ki [2]: > 10 µM

Cc1nonc1Cn1nnc2c(N3CCC(N=[N+]=[N-])C3)nc(C(C)(C)C)nc21 (stereo not shown) [Example 14, 7-(3-Azidopyrrolidin-1-yl)-5-tert-butyl-3-[(4-methyl-1,2,5-oxadiazol-3-yl)methyl]-3H-[1,2,3]triazolo[4,5-d]pyrimidine]
Ki [1]: 0.137 µM
Ki [2]: > 10 µM

Cc1nonc1Cn1nnc2c(N3CCC(N=C=S)C3)nc(C(C)(C)C)nc21 (stereo not shown) [Example 16, 5-tert-Butyl-7-(3-isothiocyanatopyrrolidin-1-yl)-3-[(4-methyl-1,2,5-oxadiazol-3-yl)methyl]-3H-[1,2,3]triazolo[4,5-d]pyrimidine]
Ki [1]: 0.426 µM
Ki [2]: > 10 µM

CC(C)(C)c1nc(N2CCC(N=[N+]=[N-])C2)c2nnn(Cc3ccccc3Cl)c2n1 (stereo not shown) [Example 17, 7-(3-Azidopyrrolidin-1-yl)-5-tert-butyl-3-[(2-chlorophenyl)methyl]-3H-[1,2,3]triazolo[4,5-d]pyrimidine]
Ki [1]: 0.21 µM
Ki [2]: 2.29 µM

CSSC1CCN(c2nc(C(F)(F)c3ccccc3)nc3c2nnn3Cc2nonc2C)C1 (stereo not shown) [Example 18, 5-[Difluoro(phenyl)methyl]-7-[3-(methyldisulfanyl)pyrrolidin-1-yl]-3-[(4-methyl-1,2,5-oxadiazol-3-yl)methyl]-3H-[1,2,3]triazolo[4,5-d]pyrimidine]
Ki [1]: 1.03 µM
Ki [2]: > 10 µM

CSSC1CCN(c2nc(C(F)(F)c3ccccc3)nc3c2nnn3Cc2ccccc2Cl)C1 (stereo not shown) [Example 19, 3-[(2-Chlorophenyl)methyl]-5-[difluoro(phenyl)methyl]-7-[3-(methyldisulfanyl)pyrrolidin-1-yl]-3H-[1,2,3]triazolo[4,5-d]pyrimidine]
Ki [1]: 1.37 µM
Ki [2]: > 10 µM

Cc1nonc1Cn1nnc2c(N3CCC(N=[N+]=[N-])C3)nc(C(F)(F)c3ccccc3)nc21 (stereo not shown) [Example 20, 7-(3-Azidopyrrolidin-1-yl)-5-[difluoro(phenyl)methyl]-3-[(4-methyl-1,2,5-oxadiazol-3-yl)methyl]-3H-[1,2,3]triazolo[4,5-d]pyrimidine]
Ki [1]: 1.3 µM
Ki [2]: > 10 µM

[N-]=[N+]=NC1CCN(c2nc(C(F)(F)c3ccccc3)nc3c2nnn3Cc2ccccc2Cl)C1 (stereo not shown) [Example 21, 7-(3-Azidopyrrolidin-1-yl)-3-[(2-chlorophenyl)methyl]-5-[difluoro(phenyl)methyl]-3H-[1,2,3]triazolo[4,5-d]pyrimidine]
Ki [1]: 0.729 µM
Ki [2]: 2.45 µM

FC(F)(c1ccccc1)c1nc(N2CCC(N=C=S)C2)c2nnn(Cc3ccccc3Cl)c2n1 (stereo not shown) [Example 22, 3-[(2-Chlorophenyl)methyl]-5-[difluoro(phenyl)methyl]-7-(3-isothiocyanatopyrrolidin-1-yl)-3H-[1,2,3]triazolo[4,5-d]pyrimidine]
Ki [1]: 1.24 µM
Ki [2]: 6.44 µM

Cc1nonc1Cn1nnc2c(N3CCC(N=C=S)C3)nc(C(F)(F)c3ccccc3)nc21 (stereo not shown) [Example 23, 5-[Difluoro(phenyl)methyl]-7-(3-isothiocyanatopyrrolidin-1-yl)-3-[(4-methyl-1,2,5-oxadiazol-3-yl)methyl]-3H-[1,2,3]triazolo[4,5-d]pyrimidine]
Ki [1]: 1.46 µM
Ki [2]: 1.45 µM

O=S(=O)(F)c1ccccc1Cn1nnc2c(N3CC[C@H](O)C3)nc(C(F)(F)c3ccccc3)nc21 [Example 24, 2-[[5-[Difluoro(phenyl)methyl]-7-[(3S)-3-hydroxypyrrolidin-1-yl]triazolo[4,5-d]pyrimidin-3-yl]methyl]benzenesulfonyl fluoride]
Ki [1]: 1.13 µM
Ki [2]: 3.29 µM

CC(C)(C)c1nc(N2CCC(F)(F)C2)c2nnn(Cc3ccccc3CSSCCO)c2n1 [Example 25, 2-[[2-[[5-tert-Butyl-7-(3,3-difluoropyrrolidin-1-yl)triazolo[4,5-d]pyrimidin-3-yl]methyl]phenyl]methyldisulfanyl]ethanol]
Ki [1]: 0.009 µM
Ki [2]: 0.211 µM

O=S(=O)(F)c1ccccc1Cn1nnc2c(N3CCC(F)(F)C3)nc(C(F)(F)c3ccccc3)nc21 [Example 26, 2-[[5-[Difluoro(phenyl)methyl]-7-(3,3-difluoropyrrolidin-1-yl)triazolo[4,5-d]pyrimidin-3-yl]methyl]benzenesulfonyl fluoride]
Ki [1]: 0.63 µM
Ki [2]: > 10 µM

FC1(F)CCN(c2nc(C(F)(F)c3ccccc3)nc3c2nnn3Cc2ccccc2CCSSc2ccccn2)C1 [Example 27, 5-[Difluoro(phenyl)methyl]-7-(3,3-difluoropyrrolidin-1-yl)-3-[[2-[2-(pyridin-2-yldisulfanyl)ethyl]phenyl]methyl]triazolo[4,5-d]pyrimidine]
Ki [1]: 0.262 µM
Ki [2]: 3.04 µM

OCCSSCCc1ccccc1Cn1nnc2c(N3CCC(F)(F)C3)nc(C(F)(F)c3ccccc3)nc21 [Example 28, 2-[2-[2-[[5-[Difluoro(phenyl)methyl]-7-(3,3-difluoropyrrolidin-1-yl)triazolo[4,5-d]pyrimidin-3-yl]methyl]phenyl]ethyldisulfanyl]ethanol]
Ki [1]: 0.138 µM
Ki [2]: 1.08 µM

CC(C)(C)c1nc(N2CCC(F)(F)C2)c2nnn(Cc3ccccc3CCSSCCO)c2n1 [Example 29, 2-[2-[2-[[5-tert-Butyl-7-(3,3-difluoropyrrolidin-1-yl)triazolo[4,5-d]pyrimidin-3-yl]methyl]phenyl]ethyldisulfanyl]ethanol]
Ki [1]: 0.006 µM
Ki [2]: 0.205 µM

CC(C)(C)c1nc(N2CCC(F)(F)C2)c2nnn(Cc3ccccc3CCS(=O)(=O)n3nnc4ccccc43)c2n1 [Example 30, 3-[[2-[2-(Benzotriazol-1-ylsulfonyl)ethyl]phenyl]methyl]-5-tert-butyl-7-(3,3-difluoropyrrolidin-1-yl)triazolo[4,5-d]pyrimidine]
Ki [1]: 0.246 µM
Ki [2]: > 10 µM
